Experimental findings from patent US6921532B1, “Biological Bioadhesive composition and methods of preparation and use” (Spinal Restoration, Inc., priority 2000, dated 2005) are described below.

The nature of this data set: Solubility / suspension in thrombin reconstituting solution. The following applies: aqueous calcium chloride reconstituting solution. From the text:
Blended betamethasone sodium phosphate and acetate solutions preferably include anti-caking agent(s) and low calcium chloride concentration(s).

Take `C[C@H]1C[C@H]2[C@@H]3CCC4=CC(=O)C=C[C@]4(C)[C@@]3(F)[C@@H](O)C[C@]2(C)[C@@]1(O)C(=O)COP(=O)([O-])[O-].[Na+].[Na+]` [betamethasone sodium phosphate]: the solubility entry is listed as “reduced in the presence of aqueous calcium chloride”.
